# Source: PubChem BioAssay AID1552 (Sanford-Burnham Center for Chemical Genomics, 2009)
# Active and inactive are the calls of the source. The rule behind the calls is not given here.
# Biological target: Ubiquitin-conjugating enzyme E2 N (Homo sapiens) (UniProt P61088)
# Assay: NMR detection of UBE2N ligand binding – biophysical, purified protein (AID 1552)
# Settings: NMR binding to purified UBE2N
# Sequence of Ubiquitin-conjugating enzyme E2 N (Homo sapiens) (P61088 whole entry, looked up): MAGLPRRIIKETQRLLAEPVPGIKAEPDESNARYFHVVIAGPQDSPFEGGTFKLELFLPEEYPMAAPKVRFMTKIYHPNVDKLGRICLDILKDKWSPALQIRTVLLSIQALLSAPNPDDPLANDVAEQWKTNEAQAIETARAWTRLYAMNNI
row,Compound,Kd
1,NC(=O)CCn1cnc2ccccc21,> 4 mM (inactive)
2,CC1(C)C2C[C@@H](O)[C@]3(C)C(CC[C@@]4(C)[C@H](c5ccoc5)OC(=O)[C@H]5O[C@]543)[C@@]2(C)[C@@H](O)C[C@H]1O (stereo partly specified),> 4 mM (inactive)
3,CC(=O)Oc1cc(OC(C)=O)c2c(c1)O[C@H](c1ccc(OC(C)=O)c(OC(C)=O)c1)[C@H](OC(C)=O)C2,> 4 mM (inactive)
4,Cc1nc2cc(NC(=O)Nc3nccs3)ccc2n1C,> 4 mM (inactive)
5,O=C1NC(=O)C(C(=S)Nc2ccccc2)C(=O)N1,> 4 mM (inactive)
6,O=c1oc(-c2ccccc2)nc2c1cnn2-c1ccccc1,> 4 mM (inactive)
7,Cc1cc[n+](-c2nc([O-])sc2C=O)cc1,> 4 mM (inactive)
8,Cc1ccc(SCc2nc(-c3ccncc3)no2)cc1,> 4 mM (inactive)
9,CC(C)n1nnc2cc(C(=O)O)ccc21,> 4 mM (inactive)
10,CCN1CCc2c(sc(N)c2C(N)=O)C1,> 4 mM (inactive)
11,O=c1c(-c2cccs2)[n+]([O-])c2ccccc2n1O,> 4 mM (inactive)
12,C=C1CCC2C(CC2(C)C)C(=C)CC/C1=N/O (stereo unspecified),> 4 mM (inactive)
13,CSc1ncc(CO)n1Cc1ccccc1,> 4 mM (inactive)
14,CC(C)(C#N)O[C@@H]1O[C@H](CO)[C@@H](O)[C@H](O)[C@H]1O,> 4 mM (inactive)
15,CCOc1ccc2ccccc2c1C(=O)N1CCOCC1,> 4 mM (inactive)
16,CCc1sc(C(=O)NC)cc1Br,> 4 mM (inactive)
17,O=C(O)Cn1cc(C(=O)C2CC2)c2ccccc21,> 4 mM (inactive)
18,O=C1CC(=O)N(c2ccccc2F)C(=S)N1,> 4 mM (inactive)
19,O=C1NC(=S)N/C1=C\c1cccnc1,> 4 mM (inactive)
20,COc1ccc(NC(=O)CCCC(=O)O)c(OC)c1,> 4 mM (inactive)
21,NCc1ccc2c(c1)CCO2,> 4 mM (inactive)
22,Cc1ccn(S(=O)(=O)c2ccc(C(C)(C)C)cc2)n1,> 4 mM (inactive)
23,CC(=O)Nc1nnc(-c2ccco2)o1,> 4 mM (inactive)
24,C=C(C)[C@@H]1[C@H]2OC(=O)[C@@H]1[C@]1(O)C[C@H]3O[C@]34C(=O)O[C@H]2[C@]14C,> 4 mM (inactive)

row,Compound,Kd
1,NCc1ccc(-n2cccc2)cc1,> 4 mM (inactive)
2,COC(=O)c1noc(C)c1C(C)=O,> 4 mM (inactive)
3,C[N+](C)(C)CC(O)CC(=O)O (stereo unspecified),> 4 mM (inactive)
4,Nc1ccc2c(c1)N1CCN=C1S2,> 4 mM (inactive)
5,CC(=O)NC12CC3CC(CC(O)(C3)C1)C2,> 4 mM (inactive)
6,Cc1nn2c3ccccc3nc2n(Cc2ccccc2)c1=O,> 4 mM (inactive)
7,CC(O)c1nc2ccccc2[nH]1 (stereo unspecified),> 4 mM (inactive)
8,CN(C)c1ccc(CNn2cnnc2)cc1,> 4 mM (inactive)
9,O=C(O)C1(O)C[C@@H](O)C(O)[C@H](O)C1 (stereo partly specified),> 4 mM (inactive)
10,CC1CCN(C(=O)c2cc3ccccc3o2)CC1,> 4 mM (inactive)
11,COc1ccc(NC2=NCC(C)S2)cc1 (stereo unspecified),> 4 mM (inactive)
12,CCC(C)C(=O)O[C@@H]1C[C@@]2(C)[C@H](c3ccoc3)OC(=O)CC23OC2(C)OC34[C@H](OC(=O)C(C)C)[C@@]3(O)[C@@H](OC(=O)C5(C)OC5C)[C@@]5(C)C[C@]3(O)[C@@](C)([C@H]5CC(=O)OC)C14O2 (stereo partly specified),> 4 mM (inactive)
13,CN1C(=O)c2ccc(C(=O)NCc3ccccc3)cc2C1=O,> 4 mM (inactive)
14,O=C(Nc1cccnc1)Nc1ccc2c(c1)OCO2,> 4 mM (inactive)
15,CNc1nnc(Cc2csc(N)n2)s1,> 4 mM (inactive)
16,O=C1C2C3C=CC(C3)C2C(=O)N1c1nccs1 (stereo unspecified),> 4 mM (inactive)
17,C=C[C@@](C)(O)CCC1C(=C)C[C@H](O)C2C(C)(C)CCCC12C (stereo partly specified),> 4 mM (inactive)
18,CC(=O)CC1CCCCN1 (stereo unspecified),> 4 mM (inactive)
19,C=C1C(=O)O[C@@H]2C3OC3(C)CC/C=C(\C)CC[C@@H]12 (stereo partly specified),> 4 mM (inactive)
20,Cc1cc(=O)oc2cc3c(cc12)OCCO3,> 4 mM (inactive)
21,CC(C)Nc1nc2n(c(=O)n1)CCN2C(C)C,> 4 mM (inactive)
22,O=C(c1ccccc1)c1ccccc1C(=O)N1CCOCC1,> 4 mM (inactive)
23,O=C(O)C(CO)c1ccccc1 (stereo unspecified),> 4 mM (inactive)
24,COc1cccc(NC(=O)c2cnn(C)c2Cl)c1,> 4 mM (inactive)

row,Compound,Kd
1,CCn1cnc(C(=O)NC)c1C(=O)NC,> 4 mM (inactive)
2,Cc1c(-c2ccc(F)cc2)[n+](=O)c2c(n1[O-])CCC2,> 4 mM (inactive)
3,O=C(O)CCC1NCC2CC1CN1CCCCC21 (stereo unspecified),> 4 mM (inactive)
4,COc1cc(C(C)=O)cc(OC)c1O,> 4 mM (inactive)
5,CC1=C(CCC(=O)O)c2cc3nc(cc4[nH]c(cc5[nH]c(cc1n2)c(C)c5C(C)O)c(C)c4C(C)O)C(C)=C3CCC(=O)O (stereo unspecified),> 4 mM (inactive)
6,Nc1nncn1C(=O)c1c(Cl)cccc1Cl,> 4 mM (inactive)
7,O=P1(O)c2ccccc2Nc2ccccc21,> 4 mM (inactive)
8,NCCN=C1NS(=O)(=O)c2ccccc21,> 4 mM (inactive)
9,O=C(Cc1cccs1)N1CCOCC1,> 4 mM (inactive)
10,O=C(Nc1cccc(Cl)c1)c1ccncc1,> 4 mM (inactive)
11,O=C(Nn1cnnc1)c1cc2c(s1)CCCC2,> 4 mM (inactive)
12,CC[C@@H]1[C@@H](O)N2C3C[C@H]1C1C(O)[C@]4(C[C@@H]12)c1ccccc1N(C)[C@@H]34 (stereo partly specified),> 4 mM (inactive)
13,O=C(CN1CCOCC1)Nc1nccs1,> 4 mM (inactive)
14,CC(=O)Nc1cccc(N(C)S(C)(=O)=O)c1,> 4 mM (inactive)
15,O=P(O)(Cc1ccccc1)c1ccccc1,> 4 mM (inactive)
16,CC(C)c1c(O)ccc2c1CCC1[C@@](C)(C=O)CCC[C@]21C (stereo partly specified),> 4 mM (inactive)
17,O=C1CCc2ccccc2CN1,> 4 mM (inactive)
18,Cc1cc(NC(=O)CS(=O)(=O)c2ccccc2)no1,> 4 mM (inactive)
19,Nc1ncnc2nc[nH]c12,> 4 mM (inactive)
20,C=CC(=O)N1CC2CC(C1)c1cccc(=O)n1C2 (stereo unspecified),> 4 mM (inactive)
21,O=C(Nc1ccc(N2CCOCC2)cc1)c1cnsn1,> 4 mM (inactive)
22,Cn1cnc2cc(NC(=O)c3ccco3)ccc21,> 4 mM (inactive)
23,O=C(CC1NC(=O)NC1=O)Nc1ccccc1 (stereo unspecified),> 4 mM (inactive)
24,O=c1nc(N2CCOCC2)nc2n1CCO2,> 4 mM (inactive)

row,Compound,Kd
1,COc1ccc2ccc(=O)oc2c1,> 4 mM (inactive)
2,O=C(NCc1cccs1)c1ccc2c(c1)OCCO2,> 4 mM (inactive)
3,OCC1Cc2ccccc2CN1 (stereo unspecified),> 4 mM (inactive)
4,CC(=O)N1CCN(c2ccc(N)cc2)CC1,> 4 mM (inactive)
5,O=C(Nc1cccc2cccnc12)c1cccnc1,> 4 mM (inactive)
6,Oc1ccccc1N1CCCC1,> 4 mM (inactive)
7,CC(=O)NC(=S)Nc1ccc(C(C)=O)cc1,> 4 mM (inactive)
8,c1ccc(Cc2nnc3sc(-c4ccncc4)nn23)cc1,> 4 mM (inactive)
9,N=C1/C(=C\c2ccco2)C(=O)N=C2SC=NN12,> 4 mM (inactive)
10,Nc1cccc(-c2cnco2)c1,> 4 mM (inactive)
11,O=C1CCC(c2cccs2)=NN1,> 4 mM (inactive)
12,O=C(O)C1CCN(S(=O)(=O)c2cccs2)CC1,> 4 mM (inactive)
13,C=C[C@@]1(C)CC(=O)[C@@]2(O)[C@](C)(O1)[C@@H](OC(C)=O)[C@@H](O)C1C(C)(C)CC[C@H](O)[C@@]12C (stereo partly specified),> 4 mM (inactive)
14,CCOC(=O)C1CCC(=O)c2cccn21 (stereo unspecified),> 4 mM (inactive)
15,CN(C)c1nc(N2CCOCC2)c2cnn(C)c2n1,> 4 mM (inactive)
16,Cc1noc(C)c1CSc1nc2ccccc2[nH]1,> 4 mM (inactive)
17,CCNC(=O)CC1Nc2ccccc2NC1=O (stereo unspecified),> 4 mM (inactive)
18,CNC(=O)Cn1c(=O)n(C)c2ccccc21,> 4 mM (inactive)
19,CC(C)c1ccc2c(c1)CCC1C(C)(C(N)=O)CCCC21C (stereo unspecified),> 4 mM (inactive)
20,COc1ccc(C2(C)CC(=O)NC2=O)cc1 (stereo unspecified),> 4 mM (inactive)
21,C[C@H]1C(=O)CCC2[C@]3(C)CC[C@@]4(C)C5CC(C)(C)CC[C@]5(C)CC[C@]4(C)C3CC[C@@]21C (stereo partly specified),> 4 mM (inactive)
22,CNc1nc(C)nc(-n2nc(C)cc2C)n1,> 4 mM (inactive)
23,COC(=O)CC1NC2CCCCC2NC1=O (stereo unspecified),> 4 mM (inactive)
24,COc1cc2c(cc1OC)[C@@H]1C(=O)c3ccc(O)c(CC=C(C)C)c3O[C@@H]1CO2,> 4 mM (inactive)

row,Compound,Kd
1,C[C@@H]1C(=O)O[C@H]2[C@H]1CC[C@@]1(C)C=CC(=O)[C@@]3(C)O[C@@]213,> 4 mM (inactive)
2,CC1C[C@H]2CC(=O)[C@H]3CCCN4CCC[C@H]2[C@]34C1 (stereo partly specified),> 4 mM (inactive)
3,CC12CNCC(C)(CNC1)C2O (stereo unspecified),> 4 mM (inactive)
4,Cc1cc(=O)c2c(O)cc(O)c(C)c2o1,> 4 mM (inactive)
5,C=C1C2=CC(=O)O[C@@H](c3ccoc3)[C@]2(C)CCC1[C@@]1(C)C=CC(=O)C(C)(C)[C@@H]1CC(=O)OC (stereo partly specified),> 4 mM (inactive)
6,Nc1nc(NCc2ccco2)nn1-c1ccccc1,> 4 mM (inactive)
7,Cn1c(=O)c2[nH]cnc2n(C)c1=O,> 4 mM (inactive)
8,NC(=O)C1CCCN1S(=O)(=O)c1ccc(F)cc1 (stereo unspecified),> 4 mM (inactive)
9,CC(=O)Oc1cc2c(C(C)=O)coc2c2ccccc12,> 4 mM (inactive)
10,Cc1nc2ccc(C(=O)O)cc2[nH]1,> 4 mM (inactive)
11,CC(=O)O[C@@H]1CC2C(C)(C)[C@H](O)C=C[C@]2(C)C2CC[C@@]3(C)[C@H](c4ccoc4)OC(=O)C4OC43[C@@]21C (stereo partly specified),> 4 mM (inactive)
12,COc1cccc(NC(=O)c2cccs2)c1,> 4 mM (inactive)
13,Cc1nnc(SCc2ccccc2)[nH]c1=O,> 4 mM (inactive)
14,CC(=O)c1c(O)cc(O)cc1O,> 4 mM (inactive)
15,Nc1ccnc(C(=O)O)c1,> 4 mM (inactive)
16,COc1ccc2c(CC(=O)O)coc2c1,> 4 mM (inactive)
17,CNCc1ccco1,> 4 mM (inactive)
18,Cc1ccc(CN2CCN(C(=O)C3CCC3)CC2)cc1,> 4 mM (inactive)
19,O=C(NN1C(=O)CSC1=S)c1ccccc1,> 4 mM (inactive)
20,CC(=O)Nc1ccc2c(C)cc(=O)[nH]c2c1,> 4 mM (inactive)
